Source: patent publication US9540343B2 (Gilead Sciences, Inc., priority 2011, dated 2017)

Key:
[1] = in vitro
Procedure, shortened: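 Cytoprotection read-out: CellTiter-Glo chemiluminescence after 5 days at 37 °C of HIV-IIIb-infected MT-4 cells (m.o.i. 0.003) with compound in 10-point 3-fold dilutions, quadruplicate, 10% FBS. Cytotoxicity (CC50) measured identically without virus.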

[2] = tested on: HIV-IIIb; assay: Test A: Antiviral assay in MT4 cells; assay type: cell-based, HIV-1; conditions: Human immunodeficiency virus 1, IIIB, MT4, 120 h, read-out: % inhibition at 2 μM, percent inhibition of virus-induced cell killing, from dose response curve at 2 uM drug; MT-4 cells infected with HIV-IIIb, 5 days, CellTiter-Glo
[3] = human, uninfected MT-4 cells, CC50 (nM), same protocol as Test A, CellTiter-Glo

Structure (SMILES) | CC50 at 5 days [1, 3] [nM] | inhibition at 2 µM [2] [%] | CC50 at 5 days ([1]; human, CC50 (nM), uninfected MT-4 cells, same protocol as Test A, CellTiter-Glo) [nM]
O=C(Cc1c[nH]c2ccc(F)cc12)N[C@@H](Cc1cc(F)cc(F)c1)c1ncccc1-c1cccnc1 [Example 439, (S)—N-(1-(3,3′-bipyridin-2-yl)-2-(3,5-difluorophenyl)ethyl)-2-(5-fluoro-1H-indol-3-yl)acetamide] | 21700 | -2 | –
NC(=O)c1cc(-c2cccnc2[C@H](Cc2cc(F)cc(F)c2)NC(=O)Cn2nc(C(F)(F)F)c3c2CNC3)ccc1F [Example 251, (S)-5-(2-(2-(3,5-difluorophenyl)-1-(2-(3-(trifluoromethyl)-5,6-dihydropyrrolo[3,4-c]pyrazol-1(4H)-yl)acetamido)ethyl)pyridin-3-yl)-2-fluorobenzamide] | > 53200 | 1 | –
NC(=O)c1cc(-c2cccnc2[C@H](Cc2cccc(F)c2)NC(=O)Cn2nc(C(F)(F)F)c3ccccc32)ccc1F [Example 213C, (S)-2-fluoro-5-(2-(2-(3-fluorophenyl)-1-(2-(3-(trifluoromethyl)-1H-indazol-1-yl)acetamido)ethyl)pyridin-3-yl)benzamide] | 15900 | 14 | –
Cc1cc2cn(CC(=O)N[C@@H](Cc3cc(F)cc(F)c3)c3ncccc3-c3ccc(F)c(C(N)=O)c3)nc2cc1C [Example 583, (S)-5-(2-(2-(3,5-difluorophenyl)-1-(2-(5,6-dimethyl-2H-indazol-2-yl)acetamido)ethyl)pyridin-3-yl)-2-fluorobenzamide] | 23200 | 28 | –
Cc1nnc(-c2cccc(-c3cccnc3[C@H](Cc3cc(F)cc(F)c3)NC(=O)Cc3c[nH]c4ccc(F)cc34)c2)o1 [Example 99, (S)—N-(2-(3,5-difluorophenyl)-1-(3-(3-(5-methyl-1,3,4-oxadiazol-2-yl)phenyl)pyridin-2-yl)ethyl)-2-(5-fluoro-1H-indol-3-yl)acetamide] | > 53200 | 0 | –
NS(=O)(=O)c1cc(-c2cccnc2[C@H](Cc2cc(F)cc(F)c2)NC(=O)Cc2c[nH]c3ccc(F)cc23)ccc1F [Example 580F, (S)—N-(2-(3,5-difluorophenyl)-1-(3-(4-fluoro-3-sulfamoylphenyl)pyridin-2-yl)ethyl)-2-(5-fluoro-1H-indol-3-yl)acetamide] | 32600 | 95 | –
NC(=O)c1cc(-c2cccnc2[C@H](Cc2cc(F)cc(F)c2)NC(=O)Cn2c(C(F)(F)F)cc3ccccc32)ccc1F [Example 599, (S)-5-(2-(2-(3,5-difluorophenyl)-1-(2-(2-(trifluoromethyl)-1H-indol-1-yl)acetamido)ethyl)pyridin-3-yl)-2-fluorobenzamide] | 31600 | 2 | –
NC(=O)c1cc(-c2cccnc2[C@H](Cc2cc(F)cc(F)c2)NC(=O)Cn2nc(C(F)(F)F)c3c2C(=O)CC3)ccc1F [Example 281C, (S)-5-(2-(2-(3,5-difluorophenyl)-1-(2-(6-oxo-3-(trifluoromethyl)-5,6-dihydrocyclopenta[c]pyrazol-1(4H)-yl)acetamido)ethyl)pyridin-3-yl)-2-fluorobenzamide] | 28300 | 5 | –
O=C(Cn1nc(C(F)(F)F)c2c1CCCC2)N[C@@H](Cc1cc(F)cc(F)c1)c1ncccc1-c1ccc(S(=O)(=O)N2CCOCC2)cc1 [Example 105, (S)—N-(2-(3,5-difluorophenyl)-1-(3-(4-(morpholinosulfonyl)phenyl)pyridin-2-yl)ethyl)-2-(3-(trifluoromethyl)-4,5,6,7-tetrahydro-1H-indazol-1-yl)acetamide] | 9080 | 99 | –
CN(C)Cc1cn(CC(=O)N[C@@H](Cc2cc(F)cc(F)c2)c2ncccc2-c2ccc(F)c(C(N)=O)c2)nc1C(F)(F)F [Example 300, (S)-5-(2-(2-(3,5-difluorophenyl)-1-(2-(4-((dimethylamino)methyl)-3-(trifluoromethyl)-1H-pyrazol-1-yl)acetamido)ethyl)pyridin-3-yl)-2-fluorobenzamide] | > 53200 | 0 | –
NC(=O)c1cc(-c2cccnc2[C@H](Cc2cc(F)cc(F)c2)NC(=O)Cn2nc(C(F)(F)F)c3c2CC(O)C3)ccc1F (some centres unmarked) [Example 265] | > 53200 | 74 | –
CCc1c(-c2ccccc2)c(C(F)(F)F)nn1CC(=O)N[C@@H](Cc1cc(F)cc(F)c1)c1ncccc1-c1ccc(F)c(C(N)=O)c1 [Example 290, (S)-5-(2-(2-(3,5-difluorophenyl)-1-(2-(5-ethyl-4-phenyl-3-(trifluoromethyl)-1H-pyrazol-1-yl)acetamido)ethyl)pyridin-3-yl)-2-fluorobenzamide] | 11500 | 4 | –
Cc1cc2ncn(CC(=O)NC(Cc3cc(F)cc(F)c3)c3nccnc3-c3ccc(Cl)cc3)c2cc1C (centres unmarked) [Example 475, N-(1-(3-(4-chlorophenyl)pyrazin-2-yl)-2-(3,5-difluorophenyl)ethyl)-2-(5,6-dimethyl-1H-benzo[d]imidazol-1-yl)acetamide] | 20400 | 23 | –
NC(=O)c1cc(-c2cccnc2[C@H](Cc2cc(F)cc(F)c2)NC(=O)Cc2c[nH]c3ccc(F)cc23)ccc1F [Example 55F, (S)-5-(2-(2-(3,5-difluorophenyl)-1-(2-(5-fluoro-1H-indol-3-yl)acetamido)ethyl)pyridin-3-yl)-2-fluorobenzamide] | 21600 | 101 | –
Cc1ccccc1-c1cccnc1[C@H](Cc1cc(F)cc(F)c1)NC(=O)Cn1nc(C(F)(F)F)c2c1CCCC2 [Example 27, (S)—N-(2-(3,5-difluorophenyl)-1-(3-o-tolylpyridin-2-yl)ethyl)-2-(3-(trifluoromethyl)-4,5,6,7-tetrahydro-1H-indazol-1-yl)acetamide] | 12000 | 72 | –
NC(=O)c1cc(-c2ccc[n+]([O-])c2[C@H](Cc2cc(F)cc(F)c2)NC(=O)Cn2nc(C(F)(F)F)c3c2CCS(=O)(=O)C3)ccc1F [Example 197, (S)-3-(3-carbamoyl-4-fluorophenyl)-2-(2-(3,5-difluorophenyl)-1-(2-(5,5-dioxido-3-(trifluoromethyl)-6,7-dihydrothiopyrano[4,3-c]pyrazol-1(4H)-yl)acetamido)ethyl)pyridine-1-oxide] | > 53200 | 0 | –
NC(=O)c1cc(-c2cccnc2[C@H](Cc2cc(F)cc(F)c2)NC(=O)Cn2ncc3c(Cl)cc(Cl)cc32)ccc1F [Example 550, (S)-5-(2-(1-(2-(4,6-dichloro-1H-indazol-1-yl)acetamido)-2-(3,5-difluorophenyl)ethyl)pyridin-3-yl)-2-fluorobenzamide] | 17000 | 1 | –
NC(=O)c1cc(-c2cccnc2[C@H](Cc2cc(F)cc(F)c2)NC(=O)Cn2nc(C(F)(F)Oc3ccccc3)c3c2CCCC3)ccc1F [Example 159, (S)-5-(2-(1-(2-(3-(difluoro(phenoxy)methyl)-4,5,6,7-tetrahydro-1H-indazol-1-yl)acetamido)-2-(3,5-difluorophenyl)ethyl)pyridin-3-yl)-2-fluorobenzamide] | 19100 | 84 | –
NC(=O)c1cc(-c2cccnc2[C@H](Cc2cc(F)cc(F)c2)NC(=O)Cn2nc(C(F)(F)F)c3c2CC(=O)C3)ccc1F [Example 237, (S)-5-(2-(2-(3,5-difluorophenyl)-1-(2-(5-oxo-3-(trifluoromethyl)-5,6-dihydrocyclopenta[c]pyrazol-1(4H)-yl)acetamido)ethyl)pyridin-3-yl)-2-fluorobenzamide] | 38200 | 1 | –
COCc1cc(C(F)(F)F)nn1CC(=O)N[C@@H](Cc1cc(F)cc(F)c1)c1ncccc1-c1ccc(F)c(C(N)=O)c1 [Example 208D] | – | 2 | > 53200
NC(=O)c1cc(-c2cccnc2[C@H](Cc2cc(F)cc(F)c2)NC(=O)Cn2nc(C(F)(F)F)c3c2C(=O)C2CC32)ccc1F (stereo partly drawn) [Example 561B, 5-(2-((1S)-2-(3,5-difluorophenyl)-1-(2-(5-oxo-3-(trifluoromethyl)-3b,4,4a,5-tetrahydro-1H-cyclopropa[3,4]cyclopenta[1,2-c]pyrazol-1-yl)acetamido)ethyl)pyridin-3-yl)-2-fluorobenzamide] | 29000 | 8 | –
CCN(CC)S(=O)(=O)c1ccc(-c2cccnc2[C@H](Cc2cc(F)cc(F)c2)NC(=O)Cn2nc(C(F)F)c3c2C(F)(F)C2CC32)cc1 (stereo partly drawn) [Example 116, (S)—N-(1-(3-(4-(N,N-diethylsulfamoyl)phenyl)-pyridin-2-yl)-2-(3,5-difluorophenyl)ethyl)-2-(3-(difluoromethyl)-5,6-dihydro-4,5-(methano)-6,6-difluoro-cyclopenta[c]pyrazol-1(4H)-yl)acetamide] | > 53200 | 72 | –
NC(=O)c1cc(-c2cccnc2[C@H](Cc2cc(F)cc(F)c2)NC(=O)Cn2cc(C(N)=O)c(C(F)(F)F)n2)ccc1F [Example 312, (S)-1-(2-(1-(3-(3-carbamoyl-4-fluorophenyl)pyridin-2-yl)-2-(3,5-difluorophenyl)ethylamino)-2-oxoethyl)-3-(trifluoromethyl)-1H-pyrazole-4-carboxamide] | > 53200 | 2 | –
NC(=O)c1cc(-c2cccnc2[C@H](Cc2cc(F)cc(F)c2)NC(=O)CN2CC(=O)Nc3ccccc32)ccc1F [Example 269, (S)-5-(2-(2-(3,5-difluorophenyl)-1-(2-(3-oxo-3,4-dihydroquinoxalin-1(2H)-yl)acetamido)ethyl)pyridin-3-yl)-2-fluorobenzamide] | > 53200 | 8 | –
COc1nc2c(CC(=O)N[C@@H](Cc3cc(F)cc(F)c3)c3ncccc3-c3cccc(C(N)=O)c3)c[nH]c2cc1C [Example 360E, (S)-3-(2-(2-(3,5-difluorophenyl)-1-(2-(5-methoxy-6-methyl-1H-pyrrolo[3,2-b]pyridin-3-yl)acetamido)ethyl)pyridin-3-yl)benzamide] | 13100 | 55 | –
